Measured values as given in US5705487A, “Antithrombotic agents” (priority 1995, dated 1998).
Structures can show the parent of a compound that is named as a salt.

How the values were obtained:
Assay type in all cases: biochemical
Human plasmin = target: T1, Human plasmin (Homo sapiens, UniProt P00747); test: Kass, plasmin chromogenic substrate assay; conditions: substrate H-D-Val-Leu-Lys-p-nitroanilide
T1 construct: Human plasmin is purchased from Boehringer Mannheim; purchased Boehringer Mannheim, Indianapolis, Ind

Bovine trypsin = target: T2, Bovine trypsin (Bos taurus, UniProt P00760); test: Kass, trypsin chromogenic substrate assay; conditions: substrate N-Benzoyl-Phe-Val-Arg-p-nitroanilide
T2 construct: Bovine trypsin is purchased from Worthington Biochemicals; purchased Worthington Biochemicals, Freehold, N.J
T2 sequence (P00760 24-246): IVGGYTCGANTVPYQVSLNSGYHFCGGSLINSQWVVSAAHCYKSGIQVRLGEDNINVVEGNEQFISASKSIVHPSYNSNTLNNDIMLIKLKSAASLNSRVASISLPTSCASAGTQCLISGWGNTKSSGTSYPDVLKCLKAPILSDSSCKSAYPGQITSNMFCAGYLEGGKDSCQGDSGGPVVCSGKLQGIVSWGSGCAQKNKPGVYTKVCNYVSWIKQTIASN

Human Plasma [1] = test: Human plasma anticoagulation, thrombin time (TT); conditions: concentration required to double the clotting time
Experimental: (§1) Dog plasma and rat plasma is obtained from conscious mixed-breed hounds (either sex, Hazelton-LRE, Kalamazoo, Mich., U.S.A.) or from anesthetized male Sprague-Dawley rats (Harlan Sprague-Dawley, Inc., Indianapolis, Ind., U.S.A.) by venipuncture into 3.8 percent citrate. Fibrinogen is prepared from in-date ACD human blood as the fraction I-2 according to previous procedures and specifications. […] Human fibrinogen is also purchased as 98 percent pure/plasmin free from American Diagnostica, Greenwich, Conn. Coagulation reagents ACTIN, Thromboplastin, and Human plasma are from Baxter Healthcare Corp., Dade Division, Miami, Fla. Bovine thrombin from Parke-Davis ([…], Mich.) is used for coagulation assays in plasma.
(§2) Coagulation assay procedures are as previously described. […] A CoAScreener coagulation instrument (American LABor, Inc.) is used for all coagulation assay measurements. The prothrombin time (PT) is measured by adding 0.05 mL saline and 0.05 mL Thromboplastin-C reagent to 0.05 mL test plasma. The activated partial thromboplastin time (APTT) is measured by incubation of 0.05 mL test plasma with 0.05 mL Actin reagent for 120 seconds followed by 0.05 mL CaCl2 (0.02M). The thrombin time (TT) is measured by adding 0.05 mL saline and 0.05 mL thrombin (10 NIH units/mL) to 0.05 mL test plasma. The compounds of Formula I are added to human or animal plasma over a wide range of concentrations to determine prolongation effects on the APTT, PT, and TT assays. Linear extrapolations are performed to estimate the concentrations required to double the clotting time for each assay.

Human Thrombin = Human Thrombin (Homo sapiens, UniProt P00734); test: Inhibition of the amidase activity of thrombin (Kass); conditions: chromogenic substrate N-benzoyl-Phe-Val-Arg-p-nitroanilide; mean over range of concentrations
Experimental: The 150 μL of an aqueous solution of the chromogenic substrate (at 0.25 mg/mL) are added and the rates of hydrolysis of the substrate are measured by monitoring the reactions at 405 nm for the release of p-nitroaniline. Standard curves are constructed by plotting free thrombin concentration against hydrolysis rate. […] The amount of free inhibitor in each assay is calculated by subtracting the number of moles of bound thrombin from the number of moles of added inhibitor (test compound).
The Kass value is the hypothetical equilibrium constant for the reaction between thrombin and the test compound (I).
Kass is calculated for a range of concentrations of test compounds and the mean value is reported in units of liter per mole.

factor Xa = target: T3, factor Xa (Homo sapiens, UniProt P00742); test: Kass, factor Xa chromogenic substrate assay; conditions: substrate N-Benzoyl-Ile-Glu-Gly-Arg-p-nitroanilide
T3 construct: Human factors X, Xa, IXa, XIa, and XIIa are purchased; purchased Enzyme Research Laboratories, South Bend, Ind

t-PA = target: T4, t-PA (Homo sapiens, UniProt P00750); test: Kass, t-PA chromogenic substrate assay; conditions: substrate H-D-Ile-Pro-Arg-p-nitroanilide
T4 construct: purchased American Diagnostica, Greenwich, Conn
Experimental: By substantially following the procedures described above for human thrombin, and using other human blood coagulation system serine proteases and proteases of the fibrinolytic system with the appropriate chromogenic substrates, identified below, selectivity of the compounds of the present invention with respect to the coagulation factor serine proteases and with respect to the fibrinolytic system serine proteases are evaluated as well as their substantial lack of interference with serine proteases of the fibrinolytic system.
Human plasmin is purchased from Boehringer Mannheim, Indianapolis, Ind.; nt-PA is purchased as single chain activity reference from American Diagnostica, Greenwich, Conn.; modified-t-PA6 (mt-PA6) is prepared at Eli Lilly and Company by procedure known in the art (See, Burck, et al., J. Biol. Chem., 265, 5120-5177 (1990). Plasmin chromogenic substrate H-D-Val-Leu-Lys-p-nitroanilide and tissue plasminogen activator (t-PA) substrate H-D-Ile-Pro-Arg-p-nitroanilide are purchased from Kabi Vitrum, Stockholm, Sweden.

Human Plasma [2] = test: Human plasma anticoagulation, prothrombin time (PT); conditions: concentration required to double the clotting time
Experimental: as §1, §2

Human Plasma [3] = test: Human plasma anticoagulation, activated partial thromboplastin time (APTT); conditions: concentration required to double the clotting time
Experimental: as §1, §2

T1 sequence (P00747 581-810 limits assumed): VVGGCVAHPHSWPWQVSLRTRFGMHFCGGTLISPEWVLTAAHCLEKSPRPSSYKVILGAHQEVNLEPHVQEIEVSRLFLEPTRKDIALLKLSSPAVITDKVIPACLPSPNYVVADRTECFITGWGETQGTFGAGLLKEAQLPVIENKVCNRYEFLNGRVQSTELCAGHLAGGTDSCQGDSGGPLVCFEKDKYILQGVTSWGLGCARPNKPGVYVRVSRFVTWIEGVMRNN
T1 sequence (P00747 97-580 partner limits assumed): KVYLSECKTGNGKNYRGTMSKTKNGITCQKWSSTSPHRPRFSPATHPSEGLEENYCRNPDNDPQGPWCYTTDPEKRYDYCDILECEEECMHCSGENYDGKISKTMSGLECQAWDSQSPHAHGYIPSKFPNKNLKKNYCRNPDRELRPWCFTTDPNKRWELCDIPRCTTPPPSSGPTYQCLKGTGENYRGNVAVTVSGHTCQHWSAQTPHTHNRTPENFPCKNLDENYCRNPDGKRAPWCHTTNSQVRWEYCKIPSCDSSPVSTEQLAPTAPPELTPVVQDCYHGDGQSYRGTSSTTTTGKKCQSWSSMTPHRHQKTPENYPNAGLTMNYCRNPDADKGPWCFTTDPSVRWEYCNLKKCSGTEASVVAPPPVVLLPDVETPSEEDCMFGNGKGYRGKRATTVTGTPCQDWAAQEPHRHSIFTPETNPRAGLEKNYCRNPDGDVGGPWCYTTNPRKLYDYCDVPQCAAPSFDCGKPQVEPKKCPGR
T3 sequence (P00742 235-488 limits assumed): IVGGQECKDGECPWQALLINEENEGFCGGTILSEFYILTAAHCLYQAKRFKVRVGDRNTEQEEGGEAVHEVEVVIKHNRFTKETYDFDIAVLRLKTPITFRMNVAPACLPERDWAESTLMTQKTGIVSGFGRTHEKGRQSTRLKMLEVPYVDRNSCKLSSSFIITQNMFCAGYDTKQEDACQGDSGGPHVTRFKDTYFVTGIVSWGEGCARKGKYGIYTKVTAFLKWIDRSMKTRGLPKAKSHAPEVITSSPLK
T3 sequence (P00742 41-179 partner limits assumed): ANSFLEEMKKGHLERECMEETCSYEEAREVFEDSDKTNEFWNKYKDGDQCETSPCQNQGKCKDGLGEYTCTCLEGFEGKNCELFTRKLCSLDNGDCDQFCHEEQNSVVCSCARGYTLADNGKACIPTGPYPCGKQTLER
T4 sequence (P00750 36-562): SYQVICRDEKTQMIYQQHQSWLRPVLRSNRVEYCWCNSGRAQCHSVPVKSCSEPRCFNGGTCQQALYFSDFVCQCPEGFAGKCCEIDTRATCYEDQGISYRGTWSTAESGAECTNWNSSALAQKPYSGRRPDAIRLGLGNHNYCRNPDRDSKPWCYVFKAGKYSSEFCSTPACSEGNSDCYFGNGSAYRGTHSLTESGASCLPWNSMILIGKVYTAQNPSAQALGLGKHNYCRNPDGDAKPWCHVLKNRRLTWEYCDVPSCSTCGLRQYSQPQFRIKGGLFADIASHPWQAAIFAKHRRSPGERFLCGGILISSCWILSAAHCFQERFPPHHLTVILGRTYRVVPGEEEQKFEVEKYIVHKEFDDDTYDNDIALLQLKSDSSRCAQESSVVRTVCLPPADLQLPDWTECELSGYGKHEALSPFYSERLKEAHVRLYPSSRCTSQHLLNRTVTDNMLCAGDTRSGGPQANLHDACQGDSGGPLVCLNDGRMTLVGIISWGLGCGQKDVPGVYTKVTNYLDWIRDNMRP

| Structure (SMILES) | Kass × 10^6 (L/mole) Plasmin (Human plasmin) | Kass × 10^6 (L/mole) Trypsin (Bovine trypsin) | Human Plasma Anticoagulation 2x Clotting time TT (Human Plasma [1]) | Kass × 10^6 (L/mole) Human Thrombin (Human Thrombin) | Kass × 10^6 (L/mole) Xa (factor Xa) | Kass × 10^6 (L/mole) t-PA (t-PA) | Human Plasma Anticoagulation 2x Clotting time PT (Human Plasma [2]) | Human Plasma Anticoagulation 2x Clotting time APTT (Human Plasma [3]) |
| --- | --- | --- | --- | --- | --- | --- | --- | --- |
| Cl.NC[C@H]1CC[C@H](CNC(=O)[C@@H]2CCCN2C(=O)[C@H](N)Cc2ccccc2)CC1 (relative stereo) [Example 12, D-Phe-Pro-NHCH2 -trans-4-(aminomethyl)cyclohexane.HCl] | 0.00087 × 10^6 L/mole | 0.0022 × 10^6 L/mole | 1,700 ng/mL | 0.44 × 10^6 L/mole | 0.000042 × 10^6 L/mole | 0.000042 × 10^6 L/mole | – | – |
| N=C(N)c1ccc(CNC(=O)[C@@H]2C[C@H](Oc3ccccc3)CN2C(=O)[C@H]2CCCCN2)cc1 (relative stereo) [Example 22, D-hPro-Pro(4-cis-PhO)-P-NHCH2 -C6 H4 C(NH)NH2.2HCl] | 0.042 × 10^6 L/mole | 8.5 × 10^6 L/mole | 170 ng/mL | 3.0 × 10^6 L/mole | 0.043 × 10^6 L/mole | 0.004 × 10^6 L/mole | 1,000 ng/mL | 2,300 ng/mL |
| N=C(N)c1ccc(CNC(=O)[C@@H]2C[C@@H]3CCCC[C@@H]3N2C(=O)[C@H]2C[C@H]3CCCC[C@H]3CN2)cc1 (relative stereo) [Example 43, D-3-Piq-cis-Ohi-p-NHCH2 C6 H4 C(NH)NH2.2HCl] | 0.30 × 10^6 L/mole | 100. × 10^6 L/mole | 280 ng/mL | 1.4 × 10^6 L/mole | 0.05 × 10^6 L/mole | 0.01 × 10^6 L/mole | 930 ng/mL | 1,100 ng/mL |
| CCS(=O)(=O)N[C@H](Cc1ccccc1)C(=O)N1[C@H](C(=O)NCc2ccc(C(=N)N)cc2)C[C@@H]2CCCC[C@@H]21 (relative stereo) [Example 45, EtSO2 -Phe-cis-Ohi-p-NHCH2 C6 H4 C(NH)NH2.HCl] | 1.1 × 10^6 L/mole | 110. × 10^6 L/mole | 8 ng/mL | 610 × 10^6 L/mole | 1.5 × 10^6 L/mole | 0.77 × 10^6 L/mole | 330 ng/mL | 200 ng/mL |
| N=C(N)c1ccc(CNC(=O)[C@@H]2C[C@@H]3CCCC[C@@H]3N2C(=O)[C@@H](Cc2ccccc2)NCC(=O)O)cc1 (relative stereo) [Example 47, HOOCCH2 -D-Phe-cis-Ohi-p-NHCH2 C6 H4 C(NH)NH2.HCl] | 0.18 × 10^6 L/mole | 82. × 10^6 L/mole | 12. ng/mL | 45 × 10^6 L/mole | 0.04 × 10^6 L/mole | 0.01 × 10^6 L/mole | 270 ng/mL | 140 ng/mL |
| Cl.N=C(N)c1ccc(CNC(=O)[C@@H]2C[C@@H]3CCCC[C@@H]3N2C(=O)[C@@H](CC2CCCCC2)NCC(=O)O)cc1 (relative stereo) [Example 49, HOOCCH2 -D-Cha-cis-Ohi-p-NHCH2 C6 H4 C(NH)NH2.HCl] | 0.84 × 10^6 L/mole | 940. × 10^6 L/mole | 5 ng/mL | 400 × 10^6 L/mole | 3.4 × 10^6 L/mole | 0.04 × 10^6 L/mole | 130 ng/mL | 130 ng/mL |
| CCOC(=O)N[C@H](Cc1ccccc1)C(=O)N1CCC[C@H]1C(=O)NCCCCN=C(N)N.Cl [Example 3, EtOCO-D-Phe-Pro-Agm.HCl] | 0.0046 × 10^6 L/mole | 0.24 × 10^6 L/mole | 590 ng/mL | 2.1 × 10^6 L/mole | 0.0021 × 10^6 L/mole | 0.033 × 10^6 L/mole | – | – |
| N=C(N)NCCCNC(=O)[C@@H]1CCCN1C(=O)[C@H](N)Cc1ccccc1 [Example 7, D-Phe-Pro-NH(CH2)3 NHC(NH)NH2.HCl] | 0.00022 × 10^6 L/mole | 0.0081 × 10^6 L/mole | 490 ng/mL | 1.9 × 10^6 L/mole | 0.0041 × 10^6 L/mole | 0.0037 × 10^6 L/mole | – | – |
| Cl.NCc1cccc(CNC(=O)[C@@H]2CCCN2C(=O)[C@H](N)Cc2ccccc2)c1 [Example 11, D-Phe-Pro-m-NHCH2 C6 H4 CH2 NH2.HCl] | 0.0060 × 10^6 L/mole | 0.0036 × 10^6 L/mole | 8,800 ng/mL | 0.064 × 10^6 L/mole | 0.000068 × 10^6 L/mole | < 0.001 × 10^6 L/mole | – | – |
| Cl.Nc1ccc(CCNC(=O)[C@@H]2CCCN2C(=O)[C@H](N)Cc2ccccc2)cc1 [Example 14, D-Phe-Pro-P-NHCH2 CH2 C6 H4 NH2.HCl] | 0.000046 × 10^6 L/mole | 0.000056 × 10^6 L/mole | 21,000 ng/mL | 0.021 × 10^6 L/mole | 0.00014 × 10^6 L/mole | < 0.001 × 10^6 L/mole | – | – |
| Cl.N=C(N)c1cccc(CNC(=O)[C@@H]2CCCN2C(=O)[C@H](N)Cc2ccccc2)c1 [Example 16, D-Phe-Pro-m-NHCH2 C6 H4 C(NH)NH2.0.75HCl] | 0.0017 × 10^6 L/mole | 0.02 × 10^6 L/mole | 650 ng/mL | 0.97 × 10^6 L/mole | 0.0051 × 10^6 L/mole | 0.0012 × 10^6 L/mole | 8,500 ng/mL | 8,600 ng/mL |
| N=C(N)c1cccc(CNC(=O)[C@@H]2CCCN2C(=O)[C@@H]2NCC[C@@H]3CCCC[C@@H]32)c1 [Example 25, D-1-Piq-Pro-m-NHCH2 -C6 H4 C(=NH)NH2.HCl] | < 0.001 × 10^6 L/mole | 0.01 × 10^6 L/mole | 1,430 ng/mL | 0.43 × 10^6 L/mole | < 0.001 × 10^6 L/mole | 0.01 × 10^6 L/mole | 40,400 ng/mL | 34,600 ng/mL |
| CCS(=O)(=O)N[C@H](Cc1ccccc1)C(=O)N1CCC[C@H]1C(=O)NCCc1ccc(C(=N)N)cc1 [Example 26, EtSO2 -D-Phe-Pro-p-NHCH2 CH2 -C6 H4 C(=NH)NH2.HCl] | 0.01 × 10^6 L/mole | 0.21 × 10^6 L/mole | 37 ng/mL | 13. × 10^6 L/mole | 0.01 × 10^6 L/mole | 0.01 × 10^6 L/mole | 750 ng/mL | 870 ng/mL |
| CCS(=O)(=O)N[C@H](Cc1ccccc1)C(=O)N1CCC[C@H]1C(=O)NCCc1cccc(C(=N)N)c1.Cl [Example 27, EtSO2 -D-Phe-Pro-m-NHCH2 CH2 -C6 H4 C(=NH)NH2.HCl] | < 0.001 × 10^6 L/mole | 0.02 × 10^6 L/mole | 1,940 ng/mL | 0.29 × 10^6 L/mole | 0.02 × 10^6 L/mole | 0.02 × 10^6 L/mole | 27,000 ng/mL | 27,800 ng/mL |
